Data as given in ChEMBL document CHEMBL2163265, “Antifungal peptides at membrane interaction” (Eur J Med Chem, 2012).
Calls of active or inactive are those of the source. The calls are words filed in the database; no cut-off is given here. Where a SMILES comes first, the peptide text is derived from it.

What was measured:
Candida albicans [1] = assay: Binding affinity to Candida albicans ATCC 90028 membrane at 2 mg/ml incubated for 15 mins on ice followed by 45 mins in room temperature by fluorescence microscopic analysis; format: functional
Candida albicans [2] = assay: Binding affinity to Candida albicans MYA-2876 membrane at 2 mg/ml incubated for 15 mins on ice followed by 45 mins in room temperature by fluorescence microscopic analysis; format: functional

In the case of `N=C(N)NCCC[C@@H]1NC(=O)[C@H](CCCNC(=N)N)NC(=O)[C@H](Cc2c[nH]c3ccccc23)NC(=O)[C@H](Cc2c[nH]c3ccccc23)NC(=O)[C@H](CCCNC(=N)N)NC(=O)[C@H](Cc2ccccc2)NC(=O)[C@H](Cc2c[nH]cn2)NC1=O` (cyclo(FRWWRRH)), the Activity (Candida albicans [1]) was “Active” and the Activity (Candida albicans [2]) was “Active”.
